Experimental data: ChEMBL document CHEMBL4765295, “Synthesis, pharmacological profile and 2D-QSAR studies of curcumin-amino acid conjugates as potential drug candidates” (Eur J Med Chem, 2020)
Several values for one entry are separate records, joined by “and”; a condition that tells them apart may be missing. Identical values can stand only once.

Tested on: Mus musculus
Experiment: Analgesic activity in albino mouse assessed as protection at 10 mg/kg, ip measured after 60 mins by hot plate test (reference value: 0 %)
Format: functional
Details: 1 h

| SMILES | Activity |
| --- | --- |
| COc1cc(/C=C/C(=O)/C=C(O)/C=C/c2ccc(OC(=O)[C@@H](C)NC(=O)OCc3ccccc3)c(OC)c2)ccc1OC(=O)[C@@H](C)NC(=O)OCc1ccccc1 | 8.2% |

Tested on: Mus musculus
Experiment: Analgesic activity in albino mouse assessed protection against acetic acid-induced abdominal writhing at 10 mg/kg, ip pretreated for 1 hr followed by acetic acid challenge and measured starting 5 mins post acetic acid challenge for 10 mins relative to control (reference value: 0 %)
Format: functional
Details: time 75 min, 1.25 h

| SMILES | Activity |
| --- | --- |
| COc1cc(/C=C/C(=O)/C=C(O)/C=C/c2ccc(OC(=O)[C@@H](C)NC(=O)OCc3ccccc3)c(OC)c2)ccc1OC(=O)[C@@H](C)NC(=O)OCc1ccccc1 | 66% |

Tested on: not listed separately
Experiment: Toxicity in albino mouse assessed as induction of toxic symptoms at 50 to 100 mg/kg, ip measured after 24 hrs
Format: organism-based
Details: in vivo, dose 50-100 mg/kg

| SMILES | Activity |
| --- | --- |
| COc1cc(/C=C/C(=O)/C=C(O)/C=C/c2ccc(OC(=O)[C@@H](C)NC(=O)OCc3ccccc3)c(OC)c2)ccc1OC(=O)[C@@H](C)NC(=O)OCc1ccccc1 | Non-Toxic |

Tested on: Peritoneal macrophage
Experiment: Antiinflammatory activity in […] mouse Peritoneal macrophages assessed as reduction in LPS-induced NO production by measuring reduction in stimulation index at 10 uM preincubated for 1 hr followed by LPS stimulation measured after 24 hrs by Griess method (reference value: 27.31 +/- 2.56 uM)
Format: functional
Details: time 25 hrs

| SMILES | Activity |
| --- | --- |
| COc1cc(/C=C/C(=O)/C=C(O)/C=C/c2ccc(OC(=O)[C@@H](C)NC(=O)OCc3ccccc3)c(OC)c2)ccc1OC(=O)[C@@H](C)NC(=O)OCc1ccccc1 | 17.63 µM |

Tested on: not listed separately
Experiment: Ulcerogenic activity in fasted albino mouse assessed as average severity of ulcers in gastric mucosa at 10 mg/kg, po for 3 days (reference value: 0)
Format: toxicity, organism-based
Details: in vivo, 72 h, time 3 day

| SMILES | Activity |
| --- | --- |
| COc1cc(/C=C/C(=O)/C=C(O)/C=C/c2ccc(OC(=O)[C@@H](C)NC(=O)OCc3ccccc3)c(OC)c2)ccc1OC(=O)[C@@H](C)NC(=O)OCc1ccccc1 | 0 |

Tested on: Rattus norvegicus
Experiment: Antiinflammatory activity in Wistar rat model of carrageenan-induced paw edema assessed as reduction in thickness of paw edema at 10 mg/kg, ip pretreated for 1 hr followed by carrageenan challenge and measured after 1 hr (reference value: 2.41 +/-0.05 mm)
Format: functional
Details: time 1 hr after carrageenan

| SMILES | Activity |
| --- | --- |
| COc1cc(/C=C/C(=O)/C=C(O)/C=C/c2ccc(OC(=O)[C@@H](C)NC(=O)OCc3ccccc3)c(OC)c2)ccc1OC(=O)[C@@H](C)NC(=O)OCc1ccccc1 | 0.43 mm |

Tested on: Mus musculus
Experiment: Analgesic activity in albino mouse assessed reduction in acetic acid-induced abdominal writhing by measuring writing reflex at 10 mg/kg, ip pretreated for 1 hr followed by acetic acid challenge and measured starting 5 mins post acetic acid challenge for 10 mins (reference value: 42.4 +/- 1.02)
Format: functional
Details: time 75 min, 1.25 h

| SMILES | Activity |
| --- | --- |
| COc1cc(/C=C/C(=O)/C=C(O)/C=C/c2ccc(OC(=O)[C@@H](C)NC(=O)OCc3ccccc3)c(OC)c2)ccc1OC(=O)[C@@H](C)NC(=O)OCc1ccccc1 | 14.4 |

Tested on: not listed separately
Experiment: Ulcerogenic activity in fasted albino mouse assessed as incidence of gastric ulceration at 10 mg/kg, po for 3 days (reference value: 0 %)
Format: toxicity, organism-based
Details: in vivo, 72 h, time 3 day

| SMILES | Activity |
| --- | --- |
| COc1cc(/C=C/C(=O)/C=C(O)/C=C/c2ccc(OC(=O)[C@@H](C)NC(=O)OCc3ccccc3)c(OC)c2)ccc1OC(=O)[C@@H](C)NC(=O)OCc1ccccc1 | 0% |

Tested on: Candida albicans
Experiment: Antifungal activity against Candida albicans incubated for 18 to 24 hrs by CLSI method
Format: functional
Details: time 18-24 hrs

| MIC | SMILES |
| --- | --- |
| 0.5 µg/mL and 0.642 µM | COc1cc(/C=C/C(=O)/C=C(O)/C=C/c2ccc(OC(=O)[C@@H](C)NC(=O)OCc3ccccc3)c(OC)c2)ccc1OC(=O)[C@@H](C)NC(=O)OCc1ccccc1 |

Tested on: Mus musculus
Experiment: Analgesic activity in albino mouse assessed as protection at 10 mg/kg, ip measured after 120 mins by hot plate test (reference value: 0 %)
Format: functional
Details: 2 h

| SMILES | Activity |
| --- | --- |
| COc1cc(/C=C/C(=O)/C=C(O)/C=C/c2ccc(OC(=O)[C@@H](C)NC(=O)OCc3ccccc3)c(OC)c2)ccc1OC(=O)[C@@H](C)NC(=O)OCc1ccccc1 | 25.2% |

Tested on: Pseudomonas aeruginosa
Experiment: Antibacterial activity against Pseudomonas aeruginosa ATCC 27853 incubated for 18 hrs by agar dilution assay
Format: functional
Details: not given

| MIC | SMILES |
| --- | --- |
| 1 µg/mL and 1.28 µM | COc1cc(/C=C/C(=O)/C=C(O)/C=C/c2ccc(OC(=O)[C@@H](C)NC(=O)OCc3ccccc3)c(OC)c2)ccc1OC(=O)[C@@H](C)NC(=O)OCc1ccccc1 |

Tested on: Rattus norvegicus
Experiment: Antiinflammatory activity in Wistar rat model of carrageenan-induced paw edema assessed as reduction in thickness of paw edema at 10 mg/kg, ip pretreated for 1 hr followed by carrageenan challenge and measured after 3 hrs (reference value: 1.79 +/-0.07 mm)
Format: functional
Details: time 4 hrs

| SMILES | Activity |
| --- | --- |
| COc1cc(/C=C/C(=O)/C=C(O)/C=C/c2ccc(OC(=O)[C@@H](C)NC(=O)OCc3ccccc3)c(OC)c2)ccc1OC(=O)[C@@H](C)NC(=O)OCc1ccccc1 | 0.09 mm |

Tested on: Mus musculus
Experiment: Analgesic activity in albino mouse assessed as forepaw licking/jumping latency time at 10 mg/kg, ip measured after 60 mins by hot plate test (reference value: 3.42 +/- 0.03 sec)
Format: functional
Details: 1 h

| SMILES | Time |
| --- | --- |
| COc1cc(/C=C/C(=O)/C=C(O)/C=C/c2ccc(OC(=O)[C@@H](C)NC(=O)OCc3ccccc3)c(OC)c2)ccc1OC(=O)[C@@H](C)NC(=O)OCc1ccccc1 | 3.7 s |

Tested on: Mus musculus
Experiment: Analgesic activity in albino mouse assessed protection against acetic acid-induced abdominal writhing at 10 mg/kg, ip pretreated for 1 hr followed by acetic acid challenge and measured starting 5 mins post acetic acid challenge for 10 mins relative to indomethacin
Format: functional
Details: time 75 min, 1.25 h

| SMILES | Activity |
| --- | --- |
| COc1cc(/C=C/C(=O)/C=C(O)/C=C/c2ccc(OC(=O)[C@@H](C)NC(=O)OCc3ccccc3)c(OC)c2)ccc1OC(=O)[C@@H](C)NC(=O)OCc1ccccc1 | 107.1% |

Tested on: not listed separately
Experiment: Ulcerogenic activity in fasted albino mouse assessed as average number of ulcers in gastric mucosa at 10 mg/kg, po for 3 days (reference value: 0)
Format: toxicity, organism-based
Details: in vivo, 72 h, time 3 day

| SMILES | Activity |
| --- | --- |
| COc1cc(/C=C/C(=O)/C=C(O)/C=C/c2ccc(OC(=O)[C@@H](C)NC(=O)OCc3ccccc3)c(OC)c2)ccc1OC(=O)[C@@H](C)NC(=O)OCc1ccccc1 | 0 |

Tested on: Peritoneal macrophage
Experiment: Antiinflammatory activity in […] mouse Peritoneal macrophages assessed as inhibition of LPS-induced NO production at 10 uM preincubated for 1 hr followed by LPS stimulation measured after 24 hrs by Griess method relative to control (reference value: 0.0 %)
Format: functional
Parameters: scale not given: the % may be the effect or the level left
Details: time 25 hrs

| SMILES | Activity |
| --- | --- |
| COc1cc(/C=C/C(=O)/C=C(O)/C=C/c2ccc(OC(=O)[C@@H](C)NC(=O)OCc3ccccc3)c(OC)c2)ccc1OC(=O)[C@@H](C)NC(=O)OCc1ccccc1 | 35.45% |

Tested on: Rattus norvegicus
Experiment: Anti-inflammatory activity in Wistar rat assessed as inhibition of carrageenan-induced paw edema at 10 mg/kg, ip pretreated for 1 hr followed by carrageenan challenge and measured after 4 hr relative to control (reference value: 0.00 +/-0.4 %)
Format: functional
Details: time 5 hrs

| SMILES | inhibition in vivo at 10 mg/kg |
| --- | --- |
| COc1cc(/C=C/C(=O)/C=C(O)/C=C/c2ccc(OC(=O)[C@@H](C)NC(=O)OCc3ccccc3)c(OC)c2)ccc1OC(=O)[C@@H](C)NC(=O)OCc1ccccc1 | 100% |

Tested on: Rattus norvegicus
Experiment: Anti-inflammatory activity in Wistar rat assessed as inhibition of carrageenan-induced paw edema at 10 mg/kg, ip pretreated for 1 hr followed by carrageenan challenge and measured after 2 hr relative to control (reference value: 0.00 +/-0.03 %)
Format: functional
Details: time 3 hrs

| SMILES | inhibition in vivo at 10 mg/kg |
| --- | --- |
| COc1cc(/C=C/C(=O)/C=C(O)/C=C/c2ccc(OC(=O)[C@@H](C)NC(=O)OCc3ccccc3)c(OC)c2)ccc1OC(=O)[C@@H](C)NC(=O)OCc1ccccc1 | 89% |
